The values below come from US8487108B2, “Piperidinyl carbamate intermediates for the synthesis of aspartic protease inhibitors” (Vitae Pharmaceuticals, Inc., priority 2005, dated 2013).

For the experiment, the target named is T1, trypsin-activated recombinant human renin (Homo sapiens, UniProt P00797).
T1 sequence (P00797 67-406): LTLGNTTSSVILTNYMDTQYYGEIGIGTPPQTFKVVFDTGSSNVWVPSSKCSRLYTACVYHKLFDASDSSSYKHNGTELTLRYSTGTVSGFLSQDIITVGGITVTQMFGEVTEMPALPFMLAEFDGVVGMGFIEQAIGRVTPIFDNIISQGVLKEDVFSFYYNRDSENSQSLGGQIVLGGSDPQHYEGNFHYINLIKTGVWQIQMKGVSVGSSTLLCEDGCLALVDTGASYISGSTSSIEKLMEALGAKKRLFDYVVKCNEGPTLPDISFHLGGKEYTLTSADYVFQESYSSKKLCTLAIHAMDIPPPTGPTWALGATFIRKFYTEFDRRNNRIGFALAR
Kind of experiment: Renin fluorescence assay (internally quenched peptide substrate). The format is biochemical. The conditions noted are these: compounds I*. In outline:
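Cleavage of an angiotensinogen-derived DABCYL-quenched peptide by trypsin-activated recombinant human renin (0.2-2 nM final) in 50 mM BES, 150 mM NaCl, 0.25 mg/mL BSA, pH 7.0; compounds 10 μM to 1 nM final. Fluorescence (ex 340/em 495 nm) followed 60-360 min at rt; linear-slope rates give percent inhibition versus uninhibited control.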

Where only a bound is given, the exact number is not on record here.

For the compound `CNC[C@H](CC1CCC(F)(F)CC1)NC(=O)N1CCC[C@@H]([C@@H](OCCNC(=O)OC)c2cc(F)cc(Cl)c2)C1` [I*-153a, methyl 2-((R)-(3-chloro-5-fluorophenyl)((R)-1-((S)-1-(4,4-difluorocyclohexyl)-3-(methylamino)propan-2-ylcarbamoyl)piperidin-3-yl)methoxy)ethylcarbamate], the IC50 is less than 1 nM. In the case of `CNC[C@H](CC1CCC(C)CC1)NC(=O)N1CCC[C@@H]([C@@H](OCCNC(=O)OC)c2cccc(Cl)c2)C1` (stereo partly drawn) [I*-86a, methyl 2-((R)-(3-chlorophenyl)((R)-1-((S)-1-(methylamino)-3-(4-methylcyclohexyl)propan-2-ylcarbamoyl)piperidin-3-yl)methoxy)ethylcarbamate] it was less than 1 nM; in that of `CNC[C@@H](NC(=O)N1CCC[C@@H]([C@@H](OCCNC(=O)OC)c2cccc(Cl)c2)C1)[C@@H](O)C1CCCCC1` [I*-100a, methyl 2-((R)-(3-chlorophenyl)((R)-1-((1S,2R)-1-cyclohexyl-1-hydroxy-3-(methylamino)propan-2-ylcarbamoyl)piperidin-3-yl)methoxy)ethylcarbamate], less than 1 nM. For `CNC[C@H](C[C@H]1CCCCOC1)NC(=O)N1CCC[C@@H]([C@@H](OCCNC(=O)OC)c2cccc(Cl)c2)C1` [I*-106a, methyl 2-((R)-(3-chlorophenyl)((R)-1-((S)-1-(methylamino)-3-((R)-oxepan-3-yl)propan-2-ylcarbamoyl)piperidin-3-yl)methoxy)ethylcarbamate], the IC50 is less than 1 nM.

Regarding `CNC[C@H](CC1CCCCCC1)NC(=O)N1CCC[C@@H]([C@@H](OCCNC(=O)OC)c2cccc(Cl)c2)C1` [I*-84a, methyl 2-((R)-(3-chlorophenyl)((R)-1-((S)-1-cycloheptyl-3-(methylamino)propan-2-ylcarbamoyl)piperidin-3-yl)methoxy)ethylcarbamate], the IC50 is less than 1 nM. For `CN[C@H](CNC(=O)N1CCC[C@@H]([C@@H](OCCNC(=O)OC)c2cc(Cl)ccc2C)C1)C[C@H]1CCCCOC1` [I*-133a, methyl 2-((R)-(5-chloro-2-methylphenyl)((R)-1-((S)-2-(methylamino)-3-((R)-oxepan-3-yl)propylcarbamoyl)piperidin-3-yl)methoxy)ethylcarbamate], the IC50 is less than 1 nM. Take `COC(=O)NCCO[C@@H](c1cccc(Cl)c1)[C@@H]1CCCN(C(=O)NC[C@@H](N)COc2ccccc2)C1` [I*-38a, methyl 2-((R)—((R)-1-((R)-2-amino-3-phenoxypropylcarbamoyl)piperidin-3-yl)(3-chlorophenyl)methoxy)ethylcarbamate]: the IC50 was less than 50 nM.

Turning to `CNC[C@H](C[C@H]1CCCOCC1)NC(=O)N1CCC[C@@H]([C@@H](OCCNC(=O)OC)c2cccc(Cl)c2)C1` [I*-98a, methyl 2-((R)-(3-chlorophenyl)((R)-1-((S)-1-(methylamino)-3-((R)-oxepan-4-yl)propan-2-yl-carbamoyl)piperidin-3-yl)methoxy)ethylcarbamate], the IC50 is less than 10 nM. As for `CNC[C@H](CC1CCOCC1)NC(=O)N1CCC[C@@H]([C@@H](OCCNC(=O)OC)c2cccc(F)c2F)C1` [I*-71a, methyl 2-((R)-(2,3-difluorophenyl)((R)-1-((S)-1-(methylamino)-3-(tetrahydro-2H-pyran-4-yl)propan-2-ylcarbamoyl)piperidin-3-yl)methoxy)ethylcarbamate], the IC50 was less than 20 nM. In the case of `CNC[C@H](CC1CCCCC1)NC(=O)N1CCC[C@@H]([C@@H](OCCNC(=O)OC)c2cc(F)ccc2C)C1` [I*-40a, methyl 2-((R)-((R)-1-((S)-1-cyclohexyl-3-(methylamino)propan-2-ylcarbamoyl)piperidin-3-yl)(5-fluoro-2-methylphenyl)methoxy)ethylcarbamate] it was less than 1 nM. In the case of `CNC[C@H](CC1CCCCC1)NC(=O)N1CCC[C@@H]([C@@H](CCCNC(=O)OC)c2cccc(F)c2)C1` [I*-23a, methyl (R)-4-((S)-1-((S)-1-cyclohexyl-3-(methylamino)propan-2-ylcarbamoyl)piperidin-3-yl)-4-(3-fluorophenyl)butylcarbamate] it was less than 10 nM; in that of `CNC[C@H](C[C@H]1CCCCOC1)NC(=O)N1CCC[C@@H]([C@@H](OCCNC(=O)OC)c2cccc(F)c2)C1` [I*-55a, methyl 2-((R)-(3-fluorophenyl)((R)-1-((S)-1-(methylamino)-3-((R)-oxepan-3-yl)propan-2-ylcarbamoyl)piperidin-3-yl)methoxy)ethylcarbamate], less than 1 nM. Under `CNC[C@@H](CC1(C)CCCCC1)NC(=O)N1CCC[C@@H]([C@@H](OCCNC(=O)OC)c2cc(F)cc(F)c2)C1` [I*-94a, methyl 2-((R)-(3,5-difluorophenyl)((R)-1-((R)-1-(methylamino)-3-(1-methylcyclohexyl)propan-2-ylcarbamoyl)piperidin-3-yl)methoxy)ethylcarbamate] stands more than 50 nM.

For `CNC[C@H](CC1CCC(O)CC1)NC(=O)N1CCC[C@@H]([C@@H](OCCNC(=O)OC)c2cccc(F)c2)C1` (stereo partly drawn) [I*-51a, methyl 2-((R)-(3-fluorophenyl)((R)-1-((S)-1-(4-hydroxycyclohexyl)-3-(methylamino)propan-2-ylcarbamoyl)piperidin-3-yl)methoxy)ethylcarbamate], the IC50 is more than 50 nM.

With `CNC[C@H](CC1CCCCC1)N/C(=N\C#N)N1CCC[C@@H]([C@@H](OCCNC(=O)OC)c2cccc(Cl)c2)C1` [I*-127a, methyl 2-((R)-(3-chlorophenyl)((R)-1-(N′-cyano-N—((S)-1-cyclohexyl-3-(methylamino)propan-2-yl)carbamimidoyl)piperidin-3-yl)methoxy)ethylcarbamate], the IC50 is less than 20 nM.

Regarding `CNC[C@@H](C[C@H]1CCCC[C@@H]1O)NC(=O)N1CCC[C@@H]([C@@H](OCCNC(=O)OC)c2cccc(Cl)c2)C1` (relative stereo) [I*-104a, methyl 2-((R)-(3-chlorophenyl)((R)-1-((R)-1-((1R*,2S*)-2-hydroxycyclohexyl)-3-(methylamino)propan-2-ylcarbamoyl)piperidin-3-yl)methoxy)ethylcarbamate], the 50% inhibitory concentration (IC50) was less than 20 nM. As for `CNC[C@H](CC1CCCCC1)NC(=O)N1CCC[C@@H]([C@@H](OCCNc2nccs2)c2cccc(Cl)c2)C1` [I*-128a, (R)-3-((R)-(3-chlorophenyl)(2-(thiazol-2-ylamino)ethoxy)methyl)-N-((S)-1-cyclohexyl-3-(methylamino)propan-2-yl)piperidine-1-carboxamide], the IC50 was more than 50 nM.

For `CNC[C@H](CC1CCOCC1)NC(=O)N1CCC[C@@H]([C@@H](OCCNC(=O)OC)c2cccc(C)c2)C1` [I*-20a, methyl 2-((R)-((R)-1-((S)-1-(methylamino)-3-(tetrahydro-2H-pyran-4-yl)propan-2-ylcarbamoyl)piperidin-3-yl)(m-tolyl)methoxy)ethylcarbamate], the IC50 is less than 50 nM.

In the case of `CNC[C@H](CC1CCCC1)NC(=O)N1CCC[C@@H]([C@@H](OCCNC(=O)OC)c2cc(Cl)ccc2C)C1` [I*-60a, methyl 2-((R)-(5-chloro-2-methylphenyl)((R)-1-((S)-1-cyclopentyl-3-(methylamino)propan-2-ylcarbamoyl)piperidin-3-yl)methoxy)ethylcarbamate], the IC50 is less than 1 nM. In the case of `CNC[C@H](C[C@H]1CCCCOC1)NC(=O)N1CCC[C@@H]([C@@H](OCCNC(=O)OC)c2cc(F)ccc2C)C1` [I*-79a, methyl 2-((R)-(5-fluoro-2-methylphenyl)((R)-1-((S)-1-(methylamino)-3-((R)-oxepan-3-yl)propan-2-ylcarbamoyl)piperidin-3-yl)methoxy)ethylcarbamate] it was less than 10 nM. For `CNC[C@H](CC1CCC(=O)CC1)NC(=O)N1CCC[C@@H]([C@@H](OCCNC(=O)OC)c2cccc(Cl)c2)C1` [I*-80a, methyl 2-((R)-(3-chlorophenyl)((R)-1-((S)-1-(methylamino)-3-(4-oxocyclohexyl)propan-2-ylcarbamoyl)piperidin-3-yl)methoxy)ethylcarbamate], the IC50 was less than 10 nM.

As for `CN[C@H](CNC(=O)N1CCC[C@@H]([C@@H](OCCNC(=O)OC)c2cc(F)cc(Cl)c2)C1)C[C@H]1CCCCOC1` [I*-143a, methyl 2-((R)-(3-chloro-5-fluorophenyl)((R)-1-((S)-2-(methylamino)-3-((R)-oxepan-3-yl)propylcarbamoyl)piperidin-3-yl)methoxy)ethylcarbamate], the IC50 was less than 1 nM. Regarding `CNC[C@H](CC1CCOCC1)NC(=O)N1CCC[C@@H]([C@@H](OCCNC(=O)OC)c2cc(F)cc(Cl)c2)C1` [I*-121a, methyl 2-((R)-(3-chloro-5-fluorophenyl)((R)-1-((S)-1-(methylamino)-3-(tetrahydro-2H-pyran-4-yl)propan-2-ylcarbamoyl)piperidin-3-yl)methoxy)ethylcarbamate], the half-maximal inhibitory concentration (IC50) is less than 20 nM. `CCC(C)(C)C[C@@H](CNC)NC(=O)N1CCC[C@@H]([C@@H](OCCNC(=O)OC)c2cccc(F)c2)C1` [I*-7a, methyl 2-((R)-((R)-1-((S)-4,4-dimethyl-1-(methylamino)hexan-2-ylcarbamoyl)piperidin-3-yl)(3-fluorophenyl)methoxy)ethylcarbamate]: the IC50 was less than 10 nM.

The term IC50 denotes the concentration needed to halve the response being measured.
